Calls of active or inactive are those of the source. No cut-off for these calls is given here.
Key:
[1] = target: T1, Serine/threonine-protein kinase PLK4 (Homo sapiens, UniProt O00444); experiment: Inhibition of PLK4 (unknown origin) incubated for 1 hr in presence of kinase tracer 236 by FRET assay
T1 sequence (O00444 whole entry): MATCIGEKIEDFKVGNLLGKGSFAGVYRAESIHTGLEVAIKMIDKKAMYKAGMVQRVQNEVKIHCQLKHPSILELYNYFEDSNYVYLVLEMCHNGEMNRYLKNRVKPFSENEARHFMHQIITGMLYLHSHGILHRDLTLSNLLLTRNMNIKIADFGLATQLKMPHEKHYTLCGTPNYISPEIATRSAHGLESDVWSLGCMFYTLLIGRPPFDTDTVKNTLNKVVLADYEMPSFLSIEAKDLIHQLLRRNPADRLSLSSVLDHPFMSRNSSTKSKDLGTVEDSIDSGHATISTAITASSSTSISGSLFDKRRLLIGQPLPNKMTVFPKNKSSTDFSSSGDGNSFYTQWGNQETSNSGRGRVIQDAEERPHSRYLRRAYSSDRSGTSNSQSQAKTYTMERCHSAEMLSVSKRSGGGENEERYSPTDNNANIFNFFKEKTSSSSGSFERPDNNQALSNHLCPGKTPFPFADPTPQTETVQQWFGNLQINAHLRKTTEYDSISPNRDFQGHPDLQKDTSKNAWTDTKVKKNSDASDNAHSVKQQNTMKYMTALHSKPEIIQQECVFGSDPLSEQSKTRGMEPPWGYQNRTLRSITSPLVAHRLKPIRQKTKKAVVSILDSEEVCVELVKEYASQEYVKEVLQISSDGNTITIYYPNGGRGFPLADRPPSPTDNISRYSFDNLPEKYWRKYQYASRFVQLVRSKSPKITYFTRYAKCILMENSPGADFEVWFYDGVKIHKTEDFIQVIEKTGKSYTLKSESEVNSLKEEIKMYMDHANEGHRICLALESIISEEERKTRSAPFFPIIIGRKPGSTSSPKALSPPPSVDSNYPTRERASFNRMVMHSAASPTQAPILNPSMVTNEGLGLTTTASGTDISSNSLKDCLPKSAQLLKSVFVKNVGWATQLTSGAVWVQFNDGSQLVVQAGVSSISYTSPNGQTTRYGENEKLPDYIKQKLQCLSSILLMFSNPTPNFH

[2] = target: T2, Protein cereblon/Serine/threonine-protein kinase PLK4 (Homo sapiens, UniProt O00444+Q96SW2); experiment: Protac activity at CRBN/PLK4 in human MCF7 cells at 0.1 uM incubated for 48 hrs by Western blot analysis; assay type: cell-based
T2 sequence (Q96SW2 whole entry, looked up, one chain of several): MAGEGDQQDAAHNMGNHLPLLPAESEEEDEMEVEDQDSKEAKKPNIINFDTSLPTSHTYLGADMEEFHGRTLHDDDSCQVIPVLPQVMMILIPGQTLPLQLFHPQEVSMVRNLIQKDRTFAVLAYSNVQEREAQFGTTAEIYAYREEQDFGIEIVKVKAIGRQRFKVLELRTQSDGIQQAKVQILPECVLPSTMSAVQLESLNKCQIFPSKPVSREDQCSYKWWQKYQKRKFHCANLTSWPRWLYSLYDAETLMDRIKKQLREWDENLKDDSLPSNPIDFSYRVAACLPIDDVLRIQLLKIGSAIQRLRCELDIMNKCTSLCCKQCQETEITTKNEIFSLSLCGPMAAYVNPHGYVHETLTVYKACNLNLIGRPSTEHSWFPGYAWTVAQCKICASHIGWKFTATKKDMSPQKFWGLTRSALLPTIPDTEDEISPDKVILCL

MCF7 [3] = experiment: Antiproliferative activity against human MCF7 cells measured at 4 to 8 days interval by cell counting analysis; assay type: functional, cell-based; conditions: time 4-8 day
[4] = target: T2, Protein cereblon/Serine/threonine-protein kinase PLK4; experiment: Protac activity at CRBN/PLK4 in human MCF7 cells at 1 uM in presence of BAF by Western blot analysis; assay type: cell-based
[5] = target: T3, Serine/threonine-protein kinase PLK4 (Homo sapiens) (UniProt O00444); experiment: Inhibition of PLK4 in human MCF7 cells assessed as increase in SAS-6 degradation by Western blot analysis; assay type: cell-based; conditions: dose 1-1000 nM
T3 sequence (whole entry): T1 sequence (O00444 whole entry)

MCF7 [6] = experiment: Inhibition of colony formation in human MCF7 cells incubated for 14 days by crystal violet staining based assay; assay type: functional, cell-based; conditions: dose 0.05-1 µM, time 14.0 day
MCF7 [7] = experiment: Induction of cell cycle arrest at G2 phase in human MCF7 cells at 0.3 to 3 uM incubated for 36 hrs by Annexin V-FITC//propidium iodide staining based flow cytometry analysis; assay type: functional
[8] = Metabolic stability in human liver microsomes assessed as half life at 100 uM incubated for 60 mins in presence of NADPH by LC-MS/MS analysis; assay type: ADME, Microsome
[9] = Metabolic stability in mouse liver microsomes assessed as half life at 100 uM incubated for 60 mins in presence of NADPH by LC-MS/MS analysis; assay type: ADME, Microsome
[10] = Metabolic stability in rat liver microsomes assessed as compound remaining at 100 uM incubated for 60 mins in presence of NADPH by LC-MS/MS analysis; assay type: ADME, Microsome; conditions: read-out: Stability
[11] = Metabolic stability in human liver microsomes assessed as compound remaining at 100 uM incubated for 60 mins by LC-MS/MS analysis; assay type: ADME, Microsome; conditions: read-out: Stability
[12] = Metabolic stability in mouse liver microsomes assessed as compound remaining at 100 uM incubated for 60 mins by LC-MS/MS analysis; assay type: ADME, Microsome; conditions: read-out: Stability
[13] = Metabolic stability in rat liver microsomes assessed as compound remaining at 100 uM incubated for 60 mins by LC-MS/MS analysis; assay type: ADME, Microsome; conditions: read-out: Stability
CYP1A2 = target: T4, CYP1A2 (Homo sapiens, UniProt P05177); experiment: Inhibition of CYP1A2 in human liver microsomes at 10 uM using alpha-Naphthoflavone as substrate preincubated for 10 mins followed by NADPH regenerating system addition and measured after 15 mins by LC-MS/MS analysis relative to control; assay type: ADME, Microsome; conditions: time 25 min
T4 sequence (P05177 whole entry): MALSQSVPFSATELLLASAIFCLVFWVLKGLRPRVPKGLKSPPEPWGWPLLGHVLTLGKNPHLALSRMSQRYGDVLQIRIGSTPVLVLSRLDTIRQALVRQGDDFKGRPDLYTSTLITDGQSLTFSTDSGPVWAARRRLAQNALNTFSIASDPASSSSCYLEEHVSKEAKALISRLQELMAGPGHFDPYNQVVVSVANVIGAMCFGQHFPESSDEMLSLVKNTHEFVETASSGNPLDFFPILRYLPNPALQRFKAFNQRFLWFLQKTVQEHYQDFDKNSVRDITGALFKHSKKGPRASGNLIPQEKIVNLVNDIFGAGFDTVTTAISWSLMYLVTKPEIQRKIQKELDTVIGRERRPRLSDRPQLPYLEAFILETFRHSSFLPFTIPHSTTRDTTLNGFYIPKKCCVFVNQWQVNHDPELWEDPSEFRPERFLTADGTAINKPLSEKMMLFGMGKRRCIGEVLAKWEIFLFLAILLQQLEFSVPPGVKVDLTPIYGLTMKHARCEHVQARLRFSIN

CYP2D6 = experiment: Inhibition of CYP2D6 in human liver microsomes at 10 uM using quinidine as substrate preincubated for 10 mins followed by NADPH regenerating system addition and measured after 15 mins by LC-MS/MS analysis relative to control; assay type: ADME, Microsome; conditions: time 25 min
[14] = AUClast in ICR mouse at 2 mg/kg, iv measured upto 24 hrs by LC-M/MS analysis; assay type: ADME, organism-based; set-up: time < 24 hrs, dose 2 mg/kg, route iv; conditions: in vivo
[15] = Bioavailability in ICR mouse at […] measured upto 24 hrs by LC-M/MS analysis; assay type: ADME, organism-based; conditions: in vivo
[16] = Efflux ratio of apparent permeability across basolateral to apical side over apical to basolateral side in human Caco-2 cells; assay type: ADME, cell-based
[17] = Toxicity in nu/nu mouse xenografted with human MCF7 cells assessed as effect on heart at 20 mg/kg, ip administered once every other day for 21 days by HE staining based analysis; assay type: organism-based; conditions: in vivo, 504 h, time 21 day
[18] = Toxicity in nu/nu mouse xenografted with human MCF7 cells assessed as effect on lungs at 20 mg/kg, ip administered once every other day for 21 days by HE staining based analysis; assay type: organism-based; conditions: in vivo, 504 h, time 21 day

- IC50 [1]: 8.4 nM
- Activity [2]: 68.3%
- Activity [4]: inactive
- inhibition [5]: Dose-Dependent Effect
- half-life at 100 µM [8]: 1.06 h
- half-life at 100 µM [9]: 1.35 h
- remaining at 1 h, 100 µM [10]: 51.5%
- remaining at 1 h, 100 µM [11]: 97.3%
- remaining at 1 h, 100 µM [12]: 80.7%
- remaining at 1 h, 100 µM [13]: 93.1%
- inhibition at 0.25 h, 10 µM (CYP1A2): 10.4%
- inhibition at 0.25 h, 10 µM (CYP2D6): 5.6%
- AUC(0-t) at 24 h [14]: 941 ng·h/mL
- bioavailability [15]: 149%
- efflux ratio [16]: 2.02
Compound: Cc1cc(Nc2nc(NCc3ccc(F)cc3F)nc3c2cnn3C2CCN(C(=O)C3CCN(c4ccc5c(c4)C(=O)N(C4CCC(=O)NC4=O)C5=O)CC3)CC2)n[nH]1 (stereo not given)
- Activity (MCF7 [3]): Active
- inhibition (MCF7 [6]): Dose-Dependent Effect
- Activity (MCF7 [7]): Dose-Dependent Effect
- Activity [17]: Non-Toxic
- Activity [18]: Non-Toxic

From ChEMBL document CHEMBL5338818, “Discovery of the First Potent, Selective, and In Vivo Efficacious Polo-like Kinase 4 Proteolysis Targeting Chimera Degrader for the Treatment of TRIM37-Amplified Breast Cancer” (J Med Chem, 2023)
